Laboratory results taken from patent US9113625B2, “Adjuvant for agricultural chemicals” (CJB Industries, Inc., priority 2009, dated 2015).

Tests used:
Assay type in all cases: in vivo
[1] = tested on: Early Blight (Alternaria solani); experiment: Evaluation of fungicide in the treatment of Early Blight on tomatoes; settings: inoculated tomato plants; Chlorothalonil 2.5 pt/ac, no adjuvant; rated after one week
Description: This example evaluated the effectiveness of the fungicide chlorothalonil for the control of Early Blight on tomatoes. The fungicide was mixed with water in a spray tank at the listed rate treatment (A), or with a permeabilizer (B) and the degree of control of the Early Blight was evaluated. The tomato plants were inoculated with the fungi. The ratings were made after one week on the per cent leaves infected with Alternaria and also the number with severe damage—necrosis.

[2] = tested on: Bacterial Leaf Spot (Xanthomonas campestris); experiment: Effectiveness of a bactericide on bacterial leaf spot on tomatoes; settings: inoculated tomato plants; Copper 2#/acre, no adjuvant; rated after two weeks
Description: This example evaluated the effectiveness of the bactericide copper hydroxide for the control of bacterial leaf spot on tomatoes. The tomato plants were inoculated with the bacteria. The bactericide was mixed with water in a spray tank at the listed rate treatment (A), or with a permeabilizer (B) and the degree of control of the leaf spot was evaluated. The ratings were made after two weeks on the per cent leaves infected.

[3] = tested on: fireblight on Southern Crepe Myrtle; experiment: Effectiveness of bactericide streptomycin at controlling fireblight; settings: infected plants sprayed until wet; rated after two days; adjuvant (B) at 500:1 dilution
Description: This example evaluated the effectiveness of the bactericide streptomycin for the control of fireblight on Southern Crepe Myrtle. The bactericide was mixed with water in a spray tank at the listed rate treatment (A), or with a permeabilizer (B). The infected plants were treated with the bactericide by spraying until wet and the degree of control of the fireblight was evaluated. The ratings were made after two days on the rate required for control.

Structure (SMILES): N#Cc1c(Cl)c(Cl)c(Cl)c(C#N)c1Cl [Chlorothalonil, chlorothalonil]
- Infected Leaflets [1]: 60%
- Infected Leaves [1]: 42%
- Leaves with >50% Necrosis [1]: 42%

Structure (SMILES): [Cu+2].[OH-].[OH-] [Copper, copper hydroxide]
- % Leaves Infected [2]: 63%

Structure (SMILES): [H]/N=C(/N)N[C@H]1[C@H](O)[C@@H](O)[C@H](O[C@@H]2O[C@@H](C)[C@](O)(C=O)[C@H]2O[C@@H]2O[C@@H](CO)[C@H](O)[C@@H](O)[C@@H]2NC)[C@@H](N/C(N)=N\[H])[C@@H]1O [Streptomycin, streptomycin]
- Level of Control (rate required for control) [3]: 60 ppm
